Assay results: the supplement of paper PMC10307832

Key:
Assay in all cases: relative viability (nuclei count vs DMSO), 5 days (fraction); higher = more cells survive
Pictilisib + Trametinib = compound: CS(=O)(=O)N1CCN(Cc2cc3nc(-c4cccc5[nH]ncc45)nc(N4CCOCC4)c3s2)CC1 [Pictilisib] + CC(=O)Nc1cccc(-n2c(=O)n(C3CC3)c(=O)c3c(Nc4ccc(I)cc4F)n(C)c(=O)c(C)c32)c1 [Trametinib] (partner 0.02 µM)
In short: (§1)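 After 5 days of treatment, lung cancer cells in 1536-well plates were fixed and stained in a single step (final 0.05% Triton X-100, 1% formaldehyde, 1 ug/ml Hoechst) and their nuclei counted on 4× images. Treatment had been applied by pin tool the day after seeding as one drug alone or as a fixed anchor-drug dose with five library-drug doses (not always all listed) in √10 steps. Relative viability is the nuclei count of treated wells divided by that of vehicle wells, and values are medians of duplicate plates.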

Pictilisib + Vorinostat = compound: CS(=O)(=O)N1CCN(Cc2cc3nc(-c4cccc5[nH]ncc45)nc(N4CCOCC4)c3s2)CC1 [Pictilisib] + O=C(CCCCCCC(=O)Nc1ccccc1)NO [Vorinostat] (partner 1 µM)
In short: as §1

Pictilisib + Olaparib = compound: CS(=O)(=O)N1CCN(Cc2cc3nc(-c4cccc5[nH]ncc45)nc(N4CCOCC4)c3s2)CC1 [Pictilisib] + O=C(c1cc(Cc2n[nH]c(=O)c3ccccc23)ccc1F)N1CCN(C(=O)C2CC2)CC1 [Olaparib] (partner 8 µM)
In short: as §1

MK-2206 + Bortezomib = compound: NC1(c2ccc(-c3nc4ccn5c(=O)[nH]nc5c4cc3-c3ccccc3)cc2)CCC1 [MK-2206] + CC(C)C[C@H](NC(=O)[C@H](Cc1ccccc1)NC(=O)c1cnccn1)B(O)O [Bortezomib] (partner 0.002 µM)
In short: as §1

MK-2206 + Decitabine = compound: NC1(c2ccc(-c3nc4ccn5c(=O)[nH]nc5c4cc3-c3ccccc3)cc2)CCC1 [MK-2206] + Nc1ncn([C@H]2C[C@H](O)[C@@H](CO)O2)c(=O)n1 [Decitabine] (partner 2 µM)
In short: as §1

Row | Cell Line | relative viability (Pictilisib + Trametinib; first compound 0.02 µM) | relative viability (Pictilisib + Trametinib; first compound 0.06325 µM) | relative viability (Pictilisib + Trametinib; first compound 0.6325 µM) | relative viability (Pictilisib + Trametinib; first compound 2 µM) | relative viability (Pictilisib + Vorinostat; first compound 0.02 µM) | relative viability (Pictilisib + Vorinostat; first compound 0.06325 µM) | relative viability (Pictilisib + Vorinostat; first compound 0.6325 µM) | relative viability (Pictilisib + Vorinostat; first compound 2 µM) | relative viability (Pictilisib + Olaparib; first compound 0.02 µM) | relative viability (Pictilisib + Olaparib; first compound 0.06325 µM) | relative viability (Pictilisib + Olaparib; first compound 0.6325 µM) | relative viability (Pictilisib + Olaparib; first compound 2 µM) | relative viability (MK-2206 + Bortezomib; first compound 0.01 µM) | relative viability (MK-2206 + Bortezomib; first compound 0.03162 µM) | relative viability (MK-2206 + Bortezomib; first compound 0.3162 µM) | relative viability (MK-2206 + Bortezomib; first compound 1 µM) | relative viability (MK-2206 + Decitabine; first compound 0.01 µM) | relative viability (MK-2206 + Decitabine; first compound 0.03162 µM) | relative viability (MK-2206 + Decitabine; first compound 0.3162 µM) | relative viability (MK-2206 + Decitabine; first compound 1 µM)
1 | HCC-44 | 0.896 | 1.03 | 1.01 | 0.643 | 1.19 | 1.14 | 1.17 | 0.783 | 1.02 | 1.06 | 1.12 | 0.915 | 0.921 | 0.86 | 0.877 | 0.874 | 0.959 | 0.968 | 0.934 | 0.908
2 | HCC-78 | 0.681 | 0.561 | 0.404 | 0.281 | 0.393 | 0.384 | 0.322 | 0.257 | 0.727 | 0.548 | 0.529 | 0.351 | 0.415 | 0.606 | 0.475 | 0.395 | 0.678 | 0.666 | 0.643 | 0.699
3 | HCC-366 | 0.374 | 0.2 | 0.157 | 0.0661 | 0.45 | 0.368 | 0.226 | 0.118 | 0.401 | 0.357 | 0.199 | 0.077 | 1.01 | 0.982 | 1.04 | 1.02 | 0.358 | 0.334 | 0.339 | 0.32
4 | HCC-827 | 0.519 | 0.422 | 0.378 | 0.235 | 0.827 | 0.811 | 0.829 | 0.559 | 0.795 | 0.512 | 0.433 | 0.284 | 0.98 | 1.06 | 1.09 | 1.03 | 0.347 | 0.256 | 0.276 | 0.228
5 | HOP-62 | 0.396 | 0.356 | 0.332 | 0.178 | 0.676 | 0.573 | 0.566 | 0.348 | 0.389 | 0.556 | 0.512 | 0.446 | 0.726 | 0.759 | 0.429 | 0.743 | 0.202 | 0.227 | 0.237 | 0.255
6 | LC-2-ad | 0.892 | 0.945 | 0.73 | 0.629 | 0.699 | 0.779 | 0.466 | 0.447 | 0.745 | 0.758 | 0.788 | 0.656 | 0.971 | 1.09 | 1.01 | 0.91 | 0.748 | 0.79 | 0.859 | 0.881
7 | LCLC-97TM1 | 0.204 | 0.226 | 0.142 | 0.0739 | 0.712 | 0.658 | 0.619 | 0.212 | 0.446 | 0.379 | 0.289 | 0.112 | 0.415 | 0.593 | 0.39 | 0.44 | 0.242 | 0.259 | 0.26 | 0.206
